According to patent US10570122B2, “Compounds with anti-tumoral activity” (AB Science, priority 2015, dated 2020):

What was measured:
[1] = system: HEP2; experiment: CellTiter-Blue cell-based survival/proliferation assay, HEP2; conditions: Homo sapiens, HEp-2; HEP2 head & neck tumor cell line, 48 h
Summary of the method: (§1)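 Tenfold compound dilutions (0–10 μM) were added to 1·10^4 cells/well. Plates incubated 48 h at 37 °C. CellTiter-Blue reduction (4 h, 37 °C) was read as fluorescence at 590 nm, background-corrected with a cell-free blank.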

[2] = system: A4513; experiment: CellTiter-Blue cell-based survival/proliferation assay, A4513; conditions: Homo sapiens; A4513 Ewing cell line, 48 h
Description: (§2) Cell-Based Proliferation Screening of Compounds
(§3) CellTiter-Blue cell-based survival/proliferation assay (Promega G8080) was performed on tumor cell lines. A total of 1·10^4 cells/well/50 μl were seeded in a 96-wells plate. Treatment was initiated by addition of a 2× drug solution of 1/10 serial dilutions ranging from 0 to 10 μM. Cells were grown for 48 h at 37° C. and then incubated with 10 μl/well of Promega CellTiter-Bleue reagent for 4 h at 37° C. The amount of resorufin dye formed was quantified by its fluorescence emission at 590 nm using a scanning multiwell spectrophotometer (OPTIMA, BMG labtech, France). A blank well without cells was used as a background control for the spectrophotometer.

[3] = system: HEPG2; experiment: CellTiter-Blue cell-based survival/proliferation assay, HEPG2; conditions: Homo sapiens; HEPG2 liver tumor cell line, 48 h
Summary of the method: as §1

[4] = system: DLD1; experiment: CellTiter-Blue cell-based survival/proliferation assay, DLD1; conditions: Homo sapiens, DLD-1; DLD_1 colorectal tumor cell line, 48 h
Summary of the method: as §1

[5] = system: H1299; experiment: CellTiter-Blue cell-based survival/proliferation assay, H1299; conditions: Homo sapiens, NCI-H1299; H1299 lung tumor cell line, 48 h
Summary of the method: as §1

[6] = system: A549; experiment: CellTiter-Blue cell-based survival/proliferation assay, A549; conditions: Homo sapiens; A549 lung tumor cell line, 48 h
Summary of the method: as §1

[7] = system: HGC27; experiment: CellTiter-Blue cell-based survival/proliferation assay, HGC27; conditions: Homo sapiens, HGC-27; HGC27 stomach tumor cell line, 48 h
Summary of the method: as §1

[8] = system: DU145; experiment: CellTiter-Blue cell-based survival/proliferation assay, DU145; conditions: Homo sapiens, DU-145; DU145 prostate tumor cell line, 48 h
Summary of the method: as §1

[9] = system: PANC1; experiment: CellTiter-Blue cell-based survival/proliferation assay, PANC1; conditions: Homo sapiens, PANC-1; PANC_1 pancreas tumor cell line, 48 h
Summary of the method: as §1

[10] = system: SW579; experiment: CellTiter-Blue cell-based survival/proliferation assay, SW579; conditions: Homo sapiens; SW579 head & neck tumor cell line, 48 h
Summary of the method: as §1

[11] = system: REC1; experiment: CellTiter-Blue cell-based survival/proliferation assay, REC1; conditions: Homo sapiens, Lymphoma cell line REC1, 48 h, read-out: Anti-tumoral activity (measured IC50) REC1
Summary of the method: as §1

[12] = system: MELWO; experiment: CellTiter-Blue cell-based survival/proliferation assay, MELWO; conditions: Homo sapiens; MEL_WO melanoma cell line, 48 h
Description: as §2, §3

[13] = system: CALU6; experiment: CellTiter-Blue cell-based survival/proliferation assay, CALU6; conditions: Homo sapiens, Calu-6; CALU6 lung tumor cell line, 48 h
Summary of the method: as §1

[14] = system: ACHN; experiment: CellTiter-Blue cell-based survival/proliferation assay, ACHN; conditions: Homo sapiens; ACHN kidney tumor cell line, 48 h
Summary of the method: as §1

[15] = system: PC3; experiment: CellTiter-Blue cell-based survival/proliferation assay, PC3; conditions: Homo sapiens, PC-3; PC3 prostate tumor cell line, 48 h
Summary of the method: as §1

[16] = system: BT20; experiment: CellTiter-Blue cell-based survival/proliferation assay, BT20; conditions: Homo sapiens, BT-20; BT20 breast tumor cell line, 48 h
Summary of the method: as §1

[17] = system: HUT78; experiment: CellTiter-Blue cell-based survival/proliferation assay, HUT78; conditions: Homo sapiens, Lymphoma cell line HUT78, 48 h, read-out: Anti-tumoral activity (measured IC50) HUT78
Summary of the method: as §1

[18] = system: HCT116; experiment: CellTiter-Blue cell-based survival/proliferation assay, HCT116; conditions: Homo sapiens, HCT-116; HCT116 colorectal tumor cell line, 48 h
Summary of the method: as §1

[19] = system: U87MG; experiment: CellTiter-Blue cell-based survival/proliferation assay, U87MG; conditions: Homo sapiens, U-87 MG; U87_MG glioblastoma cell line, 48 h
Description: as §2, §3

[20] = system: BXPC3; experiment: CellTiter-Blue cell-based survival/proliferation assay, BXPC3; conditions: Homo sapiens, BXPC-3; BXPC3 pancreas tumor cell line, 48 h
Summary of the method: as §1

[21] = system: CLS354; experiment: CellTiter-Blue cell-based survival/proliferation assay, CLS354; conditions: Homo sapiens, CLS-354; CLS354_4 head & neck tumor cell line, 48 h
Summary of the method: as §1

[22] = system: HL60; experiment: CellTiter-Blue cell-based survival/proliferation assay, HL60; conditions: Homo sapiens, HL-60, Leukemia cell line HL60, 48 h, read-out: Anti-tumoral activity (measured IC50) HL60
Summary of the method: as §1

[23] = system: TOV112D; experiment: CellTiter-Blue cell-based survival/proliferation assay, TOV112D; conditions: Homo sapiens; TOV112D ovary tumor cell line, 48 h
Summary of the method: as §1

[24] = system: U2OS; experiment: CellTiter-Blue cell-based survival/proliferation assay, U2OS; conditions: Homo sapiens; U2OS osteosarcoma cell line, 48 h
Description: as §2, §3

[25] = system: OPM2; experiment: CellTiter-Blue cell-based survival/proliferation assay, OPM2; conditions: Homo sapiens, OPM-2, Myeloma cell line OPM2, 48 h, read-out: Anti-tumoral activity (measured IC50) OPM2
Summary of the method: as §1

[26] = system: PLCPRF5; experiment: CellTiter-Blue cell-based survival/proliferation assay, PLCPRF5; conditions: Homo sapiens, PLC-PRF-5; PLC_PRF5 liver tumor cell line, 48 h
Summary of the method: as §1

[27] = system: MESSA; experiment: CellTiter-Blue cell-based survival/proliferation assay, MESSA; conditions: Homo sapiens, MES-SA; MESSA ovary tumor cell line, 48 h
Summary of the method: as §1

[28] = system: A375; experiment: CellTiter-Blue cell-based survival/proliferation assay, A375; conditions: Homo sapiens, A-375; A375 melanoma cell line, 48 h
Description: as §2, §3

[29] = system: KARPAS299; experiment: CellTiter-Blue cell-based survival/proliferation assay, KARPAS299; conditions: Homo sapiens, KARPAS-299, Lymphoma cell line KARPAS299, 48 h, read-out: Anti-tumoral activity (measured IC50) KARPAS299
Summary of the method: as §1

[30] = system: AGS; experiment: CellTiter-Blue cell-based survival/proliferation assay, AGS; conditions: Homo sapiens; AGS stomach tumor cell line, 48 h
Summary of the method: as §1

[31] = system: U118; experiment: CellTiter-Blue cell-based survival/proliferation assay, U118; conditions: Homo sapiens; U118 glioblastoma cell line, 48 h
Description: as §2, §3

[32] = system: MDAMB231; experiment: CellTiter-Blue cell-based survival/proliferation assay, MDAMB231; conditions: Homo sapiens, MDA-MB-231; MDAMB231 breast tumor cell line, 48 h
Summary of the method: as §1

[33] = system: A498; experiment: CellTiter-Blue cell-based survival/proliferation assay, A498; conditions: Homo sapiens; A498 kidney tumor cell line, 48 h
Summary of the method: as §1

SMILES: Cc1ccc(C(=O)NCCN2CCOCC2)cc1Nc1ncc(-c2ccc(-n3cccn3)cc2)o1 [Example 005, 4-Methyl-N-(2-morpholin-4-yl-ethyl)-3-[5-(4-pyrazol-1-yl-phenyl)-oxazol-2-ylamino]-benzamide]
- IC50 [1]: > 1000 nM
- IC50 [2]: > 1000 nM
- IC50 [3]: > 1000 nM
- IC50 [4]: > 1000 nM
- IC50 [5]: > 1000 nM
- IC50 [6]: > 1000 nM
- IC50 [7]: > 1000 nM
- IC50 [8]: > 1000 nM
- IC50 [9]: > 1000 nM
- IC50 [10]: > 1000 nM
- IC50 [11]: > 1000 nM
- IC50 [12]: > 1000 nM
- IC50 [13]: > 1000 nM
- IC50 [14]: > 1000 nM
- IC50 [15]: > 1000 nM
- IC50 [16]: > 1000 nM
- IC50 [17]: > 1000 nM
- IC50 [18]: > 1000 nM
- IC50 [19]: > 1000 nM
- IC50 [20]: > 1000 nM
- IC50 [21]: > 1000 nM
- IC50 [22]: > 1000 nM
- IC50 [23]: > 1000 nM
- IC50 [24]: > 1000 nM
- IC50 [25]: > 1000 nM
- IC50 [26]: > 1000 nM
- IC50 [27]: > 1000 nM
- IC50 [28]: > 1000 nM
- IC50 [29]: > 1000 nM
- IC50 [30]: > 1000 nM
- IC50 [31]: > 1000 nM
- IC50 [32]: > 1000 nM
- IC50 [33]: > 1000 nM

SMILES: CCOCc1ccc(C)c(Nc2ncc(-c3ccc(-n4cccn4)nc3)o2)c1 [Example 007, (5-Ethoxymethyl-2-methyl-phenyl)-[5-(6-pyrazol-1-yl-pyridin-3-yl)-oxazol-2-yl]-amine]
- IC50 [1]: 100 to 500 nM
- IC50 [2]: 100 to 500 nM
- IC50 [3]: > 1000 nM
- IC50 [4]: 500 to 1000 nM
- IC50 [5]: > 1000 nM
- IC50 [6]: > 1000 nM
- IC50 [7]: 100 to 500 nM
- IC50 [8]: > 1000 nM
- IC50 [9]: > 1000 nM
- IC50 [10]: > 1000 nM
- IC50 [11]: ≤ 100 nM
- IC50 [12]: > 1000 nM
- IC50 [13]: > 1000 nM
- IC50 [14]: 100 to 500 nM
- IC50 [15]: 100 to 500 nM
- IC50 [16]: > 1000 nM
- IC50 [17]: ≤ 100 nM
- IC50 [18]: > 1000 nM
- IC50 [19]: > 1000 nM
- IC50 [20]: > 1000 nM
- IC50 [21]: ≤ 100 nM
- IC50 [22]: 100 to 500 nM
- IC50 [23]: ≤ 100 nM
- IC50 [24]: > 1000 nM
- IC50 [25]: 100 to 500 nM
- IC50 [26]: > 1000 nM
- IC50 [27]: > 1000 nM
- IC50 [28]: ≤ 100 nM
- IC50 [29]: ≤ 100 nM
- IC50 [30]: ≤ 100 nM
- IC50 [31]: > 1000 nM
- IC50 [32]: > 1000 nM
- IC50 [33]: > 1000 nM

SMILES: CCOCc1ccc(C)c(Nc2nc(-c3ccc(N4CCNC4=O)cc3)ns2)c1 [Example 010, 1-{4-[5-(5-Ethoxymethyl-(2-methyl-phenylamino))-[1,2,4]thiadiazol-3-yl]-phenyl}-imidazolidin-2-one]
- IC50 [1]: ≤ 100 nM
- IC50 [2]: > 1000 nM
- IC50 [3]: > 1000 nM
- IC50 [4]: > 1000 nM
- IC50 [5]: 100 to 500 nM
- IC50 [6]: > 1000 nM
- IC50 [7]: ≤ 100 nM
- IC50 [8]: > 1000 nM
- IC50 [9]: > 1000 nM
- IC50 [10]: ≤ 100 nM
- IC50 [11]: ≤ 100 nM
- IC50 [12]: ≤ 100 nM
- IC50 [13]: 500 to 1000 nM
- IC50 [14]: ≤ 100 nM
- IC50 [15]: ≤ 100 nM
- IC50 [16]: > 1000 nM
- IC50 [17]: ≤ 100 nM
- IC50 [18]: ≤ 100 nM
- IC50 [19]: > 1000 nM
- IC50 [20]: > 1000 nM
- IC50 [21]: ≤ 100 nM
- IC50 [22]: ≤ 100 nM
- IC50 [23]: ≤ 100 nM
- IC50 [24]: > 1000 nM
- IC50 [25]: ≤ 100 nM
- IC50 [26]: > 1000 nM
- IC50 [27]: > 1000 nM
- IC50 [28]: ≤ 100 nM
- IC50 [29]: ≤ 100 nM
- IC50 [30]: > 1000 nM
- IC50 [31]: > 1000 nM
- IC50 [32]: > 1000 nM
- IC50 [33]: > 1000 nM
